Type in all cases: biochemical
In one assay the target is T1, recombinant PRL-1 (Homo sapiens, UniProt Q93096).
T1 construct: 6xHis (N, cleaved yes); made in house; host or cells: E. coli One Shot BL21 Star
T1 sequence (Q93096 1-173): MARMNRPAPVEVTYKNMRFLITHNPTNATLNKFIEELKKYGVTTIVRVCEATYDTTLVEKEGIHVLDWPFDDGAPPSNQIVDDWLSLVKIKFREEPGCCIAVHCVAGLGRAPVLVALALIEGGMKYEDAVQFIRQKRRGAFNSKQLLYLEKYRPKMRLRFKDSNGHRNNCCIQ
As to the kind of experiment: In vitro phosphatase assay (DiFMUP hydrolysis), PRL-1. Note: test concentration or dose not given here.

The next assay deals with T2, recombinant PRL-2 (Homo sapiens, UniProt Q12974).
T2 construct: 6xHis (N, cleaved yes); made in house; host or cells: E. coli One Shot BL21 Star
T2 sequence (Q12974 1-167): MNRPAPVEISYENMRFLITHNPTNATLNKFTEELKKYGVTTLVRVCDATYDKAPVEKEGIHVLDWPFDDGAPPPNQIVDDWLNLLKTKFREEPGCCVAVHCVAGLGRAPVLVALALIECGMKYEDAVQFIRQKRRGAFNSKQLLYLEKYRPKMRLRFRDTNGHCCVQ
As to the kind of experiment: In vitro phosphatase assay (DiFMUP hydrolysis), PRL-2.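 Note: PRL-2 activity read as DiFMUP hydrolysis after 20 min at room temperature with drug, enzyme first pre-reduced at 4 °C for 20 min.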

The next assay has as its target T3, recombinant PRL-3 (Homo sapiens, UniProt O75365).
T3 construct: 6xHis (N, cleaved yes); made in house; host or cells: E. coli One Shot BL21 Star
Kind of assay: In vitro phosphatase assay (DiFMUP hydrolysis), PRL-3. Note: test concentration or dose not given here.

Setting [1] is: FDA-approved drug screen, activity compared to DMSO.

Molecules are shown by their SMILES. Where two headings read alike, the source gives them in different places.

T3 sequence (O75365 whole entry): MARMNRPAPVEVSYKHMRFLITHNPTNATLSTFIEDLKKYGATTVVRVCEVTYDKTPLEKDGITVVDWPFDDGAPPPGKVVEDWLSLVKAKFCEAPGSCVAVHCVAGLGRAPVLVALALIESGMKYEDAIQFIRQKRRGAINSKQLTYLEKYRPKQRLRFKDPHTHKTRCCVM
Description for recombinant PRL-2: Briefly, protein was diluted in reaction buffer and allowed to incubate at 4 °C for 20 min to allow for full reduction of the active site. DiFMUP, drug, and protein were added, and plates were incubated for 20 min at room temperature. Fluorescence intensities were measured on a Cytation 5 plate reader (Biotek) at an EX:360 nm and EM:460 nm. […] Inhibition selectivity for PRLs over a panel of other phosphatases was determined using PhosphataseProfiler (Eurofins, Cat # PP260).

Regarding `COc1cnc(NS(=O)(=O)c2ccc(N)cc2)nc1` [Sulfameter], the “% Phosphatase Activity (compared to DMSO) PRL-1” value on recombinant PRL-1 (setting [1]) turned out to be 106%. Also, the “% Phosphatase Activity (compared to DMSO) PRL-2” value on recombinant PRL-2 (setting [1]) came out at 109%. Moreover, the “% Phosphatase Activity (compared to DMSO) PRL-3” value at recombinant PRL-3 (setting [1]) was 91%.

For the molecule `Cc1cc(C)nc(NS(=O)(=O)c2ccc(N)cc2)n1` [Sulfamethazine], the “% Phosphatase Activity (compared to DMSO) PRL-1” value at recombinant PRL-1 (setting [1]) is listed as 108%. Besides, the “% Phosphatase Activity (compared to DMSO) PRL-2” value on recombinant PRL-2 (setting [1]) worked out at 105%. In addition, on recombinant PRL-3 (setting [1]), the “% Phosphatase Activity (compared to DMSO) PRL-3” value turned out to be 82%.

For the molecule `Cc1nnc(NS(=O)(=O)c2ccc(N)cc2)s1` [Sulfamethizole], the “% Phosphatase Activity (compared to DMSO) PRL-1” value at recombinant PRL-1 (setting [1]) was determined as 88%. In addition, on recombinant PRL-2 (setting [1]), the “% Phosphatase Activity (compared to DMSO) PRL-2” value was 99%. In addition, the “% Phosphatase Activity (compared to DMSO) PRL-3” value at recombinant PRL-3 (setting [1]) was determined as 92%.

For the molecule `Cc1cc(NS(=O)(=O)c2ccc(N)cc2)no1` [Sulfamethoxazole], the “% Phosphatase Activity (compared to DMSO) PRL-1” value at recombinant PRL-1 was determined as 91%. The “% Phosphatase Activity (compared to DMSO) PRL-2” value at recombinant PRL-2 worked out at 96%. In addition, the “% Phosphatase Activity (compared to DMSO) PRL-3” value at recombinant PRL-3 was 86%.

With `COc1ccc(NS(=O)(=O)c2ccc(N)cc2)nn1` [Sulfamethoxypyridazine], at recombinant PRL-1 (setting [1]), the “% Phosphatase Activity (compared to DMSO) PRL-1” value came to 94%. Besides, at recombinant PRL-2 (setting [1]), the “% Phosphatase Activity (compared to DMSO) PRL-2” value is listed as 109%. For the same molecule, on recombinant PRL-3 (setting [1]), the “% Phosphatase Activity (compared to DMSO) PRL-3” value is on record as 77%.

For `Nc1ccc(S(=O)(=O)Nc2ccccn2)cc1` [Sulfapyridine], the “% Phosphatase Activity (compared to DMSO) PRL-1” value at recombinant PRL-1 (setting [1]) is 106%. For the same molecule, the “% Phosphatase Activity (compared to DMSO) PRL-2” value at recombinant PRL-2 (setting [1]) was 113%. Besides, the “% Phosphatase Activity (compared to DMSO) PRL-3” value on recombinant PRL-3 (setting [1]) was 84%.

In the case of `O=C(O)c1cc(/N=N/c2ccc(S(=O)(=O)Nc3ccccn3)cc2)ccc1O` [Sulfasalazine], on recombinant PRL-1 (setting [1]), the “% Phosphatase Activity (compared to DMSO) PRL-1” value came out at 67%. The “% Phosphatase Activity (compared to DMSO) PRL-2” value at recombinant PRL-2 (setting [1]) came out at 50%. Besides, at recombinant PRL-3 (setting [1]), the “% Phosphatase Activity (compared to DMSO) PRL-3” value worked out at 59%.

Take `Nc1ccc(S(=O)(=O)Nc2nccs2)cc1` [Sulfathiazole]: the “% Phosphatase Activity (compared to DMSO) PRL-1” value at recombinant PRL-1 (setting [1]) turned out to be 119%. Further, the “% Phosphatase Activity (compared to DMSO) PRL-2” value on recombinant PRL-2 (setting [1]) was determined as 114%. The “% Phosphatase Activity (compared to DMSO) PRL-3” value at recombinant PRL-3 (setting [1]) turned out to be 87%.

Regarding `Cc1noc(NS(=O)(=O)c2ccc(N)cc2)c1C` [Sulfisoxazole], the “% Phosphatase Activity (compared to DMSO) PRL-1” value on recombinant PRL-1 (setting [1]) is given as 88%. Besides, the “% Phosphatase Activity (compared to DMSO) PRL-2” value at recombinant PRL-2 (setting [1]) is 95%. The “% Phosphatase Activity (compared to DMSO) PRL-3” value on recombinant PRL-3 (setting [1]) came out at 89%.

As to `CC1=C(CC(=O)O)c2cc(F)ccc2/C1=C\c1ccc([S+](C)[O-])cc1` (stereo not drawn) [Sulindac], the “% Phosphatase Activity (compared to DMSO) PRL-1” value on recombinant PRL-1 (setting [1]) worked out at 83%. Further, at recombinant PRL-2 (setting [1]), the “% Phosphatase Activity (compared to DMSO) PRL-2” value is 96%. Also, the “% Phosphatase Activity (compared to DMSO) PRL-3” value on recombinant PRL-3 (setting [1]) amounted to 85%.

Take `COc1cc(O)c(C(=O)c2ccccc2)cc1S(=O)(=O)O` [Sulisobenzone]: the “% Phosphatase Activity (compared to DMSO) PRL-1” value at recombinant PRL-1 (setting [1]) is reported as 91%. The “% Phosphatase Activity (compared to DMSO) PRL-2” value on recombinant PRL-2 (setting [1]) came out at 95%. In addition, the “% Phosphatase Activity (compared to DMSO) PRL-3” value at recombinant PRL-3 (setting [1]) was 81%.

Turning to `COc1cc(NS(=O)(=O)c2ccc(N)cc2)nc(OC)n1` [Sulphadimethoxine], at recombinant PRL-1 (setting [1]), the “% Phosphatase Activity (compared to DMSO) PRL-1” value was 92%. In addition, the “% Phosphatase Activity (compared to DMSO) PRL-2” value at recombinant PRL-2 (setting [1]) worked out at 94%. Further, the “% Phosphatase Activity (compared to DMSO) PRL-3” value on recombinant PRL-3 (setting [1]) is 83%.

For `CCN1CCCC1CNC(=O)c1cc(S(N)(=O)=O)ccc1OC` (stereo not drawn) [Sulpiride], the “% Phosphatase Activity (compared to DMSO) PRL-1” value at recombinant PRL-1 (setting [1]) is on record as 89%. Further, on recombinant PRL-2 (setting [1]), the “% Phosphatase Activity (compared to DMSO) PRL-2” value is 92%. In addition, the “% Phosphatase Activity (compared to DMSO) PRL-3” value at recombinant PRL-3 (setting [1]) turned out to be 70%.

For `CNS(=O)(=O)Cc1ccc2[nH]cc(CCN(C)C)c2c1` [Sumatriptan Succinate], the “% Phosphatase Activity (compared to DMSO) PRL-1” value on recombinant PRL-1 (setting [1]) is recorded as 99%. Also, at recombinant PRL-2 (setting [1]), the “% Phosphatase Activity (compared to DMSO) PRL-2” value amounted to 84%. In addition, at recombinant PRL-3 (setting [1]), the “% Phosphatase Activity (compared to DMSO) PRL-3” value is reported as 80%.

Consider `CCN(CC)CCNC(=O)c1c(C)[nH]c(/C=C2\C(=O)Nc3ccc(F)cc32)c1C` [Sunitinib Malate], for which the “% Phosphatase Activity (compared to DMSO) PRL-1” value on recombinant PRL-1 (setting [1]) is given as 80%. Further, on recombinant PRL-2 (setting [1]), the “% Phosphatase Activity (compared to DMSO) PRL-2” value is 76%. In addition, on recombinant PRL-3 (setting [1]), the “% Phosphatase Activity (compared to DMSO) PRL-3” value stood at 65%.

In the case of `CCN(CC)CCNC(=O)c1c(C)[nH]c(/C=C2\C(=O)Nc3ccc(F)cc32)c1C` [Sunitinib], the “% Phosphatase Activity (compared to DMSO) PRL-1” value on recombinant PRL-1 (setting [1]) is on record as 67%. For the same molecule, the “% Phosphatase Activity (compared to DMSO) PRL-2” value at recombinant PRL-2 (setting [1]) amounted to 42%. For the same molecule, the “% Phosphatase Activity (compared to DMSO) PRL-3” value on recombinant PRL-3 (setting [1]) is 77%.

`CC(C(=O)O)c1ccc(C(=O)c2cccs2)cc1` (stereo not drawn) [Suprofen]: the “% Phosphatase Activity (compared to DMSO) PRL-1” value at recombinant PRL-1 (setting [1]) is 93%. In addition, the “% Phosphatase Activity (compared to DMSO) PRL-2” value on recombinant PRL-2 (setting [1]) was 95%. Also, at recombinant PRL-3 (setting [1]), the “% Phosphatase Activity (compared to DMSO) PRL-3” value was found to be 92%.

For the origin of these results see article PMC8119466, “A screen of FDA-approved drugs identifies inhibitors of protein tyrosine phosphatase 4A3 (PTP4A3 or PRL-3)” (Scientific Reports, 2021).
